Common to all, as to format: functional
One assay concerns Escherichia coli. The experiment in a line: Antibacterial activity against Escherichia coli by disk diffusion method. (A growth-free zone around the sample is the usual read-out of agar diffusion tests.)
A further assay concerns Staphylococcus. Nature of the assay: Antibacterial activity against Staphylococcus citrus by disc diffusion method.
Another assay has as its system Bacillus subtilis. Nature of the assay: Antibacterial activity against Bacillus subtilis by disk diffusion method.
The test system of another assay is Klebsiella pneumoniae. Nature of the assay: Antibacterial activity against Klebsiella pneumoniae by disk diffusion method.

On to `CCOC(=O)C1C(c2ccccc2)CC2C(NC(=O)/C=C/c3ccccc3)C(=O)N21` (stereo not drawn), for which the “inhibition zone (IZ)” value with Escherichia coli, with Staphylococcus, with Bacillus subtilis and in the assay on Klebsiella pneumoniae was less than 6 mm throughout.
For the compound `CCOC(=O)C1C(c2ccccc2)CC2C(NC(=O)COc3ccccc3)C(=O)N21` (stereo not drawn), the “inhibition zone (IZ)” value in the assay with Escherichia coli, in the assay with Staphylococcus, in the assay on Bacillus subtilis and in the assay with Klebsiella pneumoniae was less than 6 mm in each case.
For `CCOC(=O)C1C(c2ccccc2)CC2C(NC(=O)Cc3ccccc3)C(=O)N21` (stereo not drawn), the “inhibition zone (IZ)” value with Escherichia coli, in the assay on Staphylococcus, with Bacillus subtilis and with Klebsiella pneumoniae was less than 6 mm throughout.
On to `CCOC(=O)C1C(c2ccccc2)CC2C(NC(=O)c3ccccc3)C(=O)N21` (stereo not drawn), for which the “inhibition zone (IZ)” value in the assay on Escherichia coli, in the assay on Staphylococcus, in the assay with Bacillus subtilis and in the assay on Klebsiella pneumoniae was less than 6 mm in each case.
Consider `CCOC(=O)C(Cc1ccccc1)N1C(=O)C(NC(=O)/C=C/c2ccccc2)C1/C=C/c1ccccc1` (stereo not drawn), for which the “inhibition zone (IZ)” value in the assay on Escherichia coli, with Staphylococcus, with Bacillus subtilis and in the assay on Klebsiella pneumoniae was less than 6 mm each time.
On to `CCOC(=O)C(Cc1ccccc1)N1C(=O)C(NC(=O)COc2ccccc2)C1/C=C/c1ccccc1` (stereo not drawn), for which the “inhibition zone (IZ)” value was less than 6 mm in the assay on Escherichia coli, 9 mm with Staphylococcus, greater than 12 mm with Bacillus subtilis and less than 6 mm in the assay with Klebsiella pneumoniae.
For `CCOC(=O)C(Cc1ccccc1)N1C(=O)C(NC(=O)Cc2ccccc2)C1/C=C/c1ccccc1` (stereo not drawn), the “inhibition zone (IZ)” value in the assay on Escherichia coli is on record as less than 6 mm; in the assay with Staphylococcus it was 9 mm; with Bacillus subtilis, greater than 12 mm; in the assay with Klebsiella pneumoniae, less than 6 mm.
Consider `CCOC(=O)C(Cc1ccccc1)N1C(=O)C(NC(=O)c2ccccc2)C1/C=C/c1ccccc1` (stereo not drawn), for which the “inhibition zone (IZ)” value in the assay on Escherichia coli, in the assay on Staphylococcus, with Bacillus subtilis and with Klebsiella pneumoniae was less than 6 mm throughout.
As for `CCOC(=O)C1C(c2ccccc2)CC2C(NN3C(=O)c4ccccc4C3=O)C(=O)N21` (stereo not drawn), the “inhibition zone (IZ)” value in the assay on Escherichia coli, with Staphylococcus, in the assay with Bacillus subtilis and in the assay on Klebsiella pneumoniae was less than 6 mm throughout.
For `CCOC(=O)C(Cc1ccccc1)N1C(=O)C(NN2C(=O)c3ccccc3C2=O)C1CO` (stereo not drawn), the “inhibition zone (IZ)” value with Escherichia coli, in the assay with Staphylococcus, in the assay on Bacillus subtilis and with Klebsiella pneumoniae was less than 6 mm each time.
In the case of `CCOC(=O)C(Cc1ccccc1)N1C(=O)C(NN2C(=O)c3ccccc3C2=O)C1C=O` (stereo not drawn), the “inhibition zone (IZ)” value with Escherichia coli, in the assay on Staphylococcus, with Bacillus subtilis and in the assay on Klebsiella pneumoniae was less than 6 mm each time.
`CCOC(=O)C(Cc1ccccc1)N1C(=O)C(NN2C(=O)c3ccccc3C2=O)C1/C=C/c1ccccc1` (stereo not drawn): the “inhibition zone (IZ)” value with Escherichia coli is reported as less than 6 mm; in the assay with Staphylococcus, 9 mm; in the assay on Bacillus subtilis it was greater than 12 mm; in the assay on Klebsiella pneumoniae, less than 6 mm.

These data come from ChEMBL document CHEMBL3045903, “Computational evaluation and experimental verification of antibacterial activity of some -lactams: advantages and limitations” (2013).
